Here are results for four molecules from patent US9073930B2, “Dipeptidyl peptidase-IV inhibitors for the treatment or prevention of diabetes” (Merck Sharp & Dohme Corp., priority 2012, dated 2015).

Each structure is given as a SMILES string.

The target of assay [1] is T1, dipeptidyl peptidase-IV enzyme (DPP-4) (Homo sapiens, UniProt P27487).
T1 construct: soluble (transmembrane domain and cytoplasmic extension excluded) human protein; made in house; host or cells: baculovirus expression system (Bac-To-Bac, Gibco BRL)
T1 sequence (P27487 29-766 limits assumed): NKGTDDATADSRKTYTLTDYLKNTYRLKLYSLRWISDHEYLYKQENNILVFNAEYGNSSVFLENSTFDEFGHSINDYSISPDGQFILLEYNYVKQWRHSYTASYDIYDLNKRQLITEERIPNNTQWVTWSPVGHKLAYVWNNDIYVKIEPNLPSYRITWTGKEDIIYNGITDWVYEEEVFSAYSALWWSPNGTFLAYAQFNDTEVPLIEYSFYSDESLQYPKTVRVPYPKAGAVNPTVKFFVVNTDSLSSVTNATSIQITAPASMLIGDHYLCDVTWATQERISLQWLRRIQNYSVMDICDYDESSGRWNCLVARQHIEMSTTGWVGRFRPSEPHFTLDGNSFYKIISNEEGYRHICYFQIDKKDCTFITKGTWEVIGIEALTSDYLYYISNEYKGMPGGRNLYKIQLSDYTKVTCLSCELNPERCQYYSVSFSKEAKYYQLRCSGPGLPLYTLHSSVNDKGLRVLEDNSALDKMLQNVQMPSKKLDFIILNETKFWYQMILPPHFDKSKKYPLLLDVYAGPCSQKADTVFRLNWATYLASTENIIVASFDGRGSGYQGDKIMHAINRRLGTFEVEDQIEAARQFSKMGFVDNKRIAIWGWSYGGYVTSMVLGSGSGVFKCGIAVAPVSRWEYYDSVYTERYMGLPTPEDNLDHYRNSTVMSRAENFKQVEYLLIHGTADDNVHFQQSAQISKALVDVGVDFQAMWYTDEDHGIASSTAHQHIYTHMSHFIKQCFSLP
Put plainly: Continuous fluorometric DPP-4 inhibition assay with substrate Gly-Pro-AMC. In kind it is biochemical. The note with it: soluble human DPP-4, 50 μM Gly-Pro-AMC, pH 7.5, room temperature. How it is done: Inhibition constants are determined as follows. A continuous fluorometric assay is employed with the substrate Gly-Pro-AMC, which is cleaved by DPP-4 to release the fluorescent AMC leaving group. The kinetic parameters that describe this reaction are as follows: Km=50 μM; kcat=75 s^−1; kcat/Km=1.5×10^6 M^−1 s^−1. A typical reaction contains approximately 50 pM enzyme, 50 μM Gly-Pro-AMC, and buffer (100 mM HEPES, pH 7.5, 0.1 mg/ml BSA) in a total reaction volume of 100 μL. Liberation of AMC is monitored continuously in a 96-well plate fluorometer using an excitation wavelength of 360 nm and an emission wavelength of 460 nm. Under these conditions, approximately 0.8 μM AMC is produced in 30 minutes at 25 degrees C. The enzyme used in these studies was soluble (transmembrane domain and cytoplasmic extension excluded) human protein produced in a baculovirus expression system (Bac-To-Bac, Gibco BRL). […] To measure the dissociation constants for compounds, solutions of inhibitor in DMSO were added to reactions containing enzyme and substrate (final DMSO concentration is 1%). All experiments were conducted at room temperature using the standard reaction conditions described above. To determine the dissociation constants (Ki), reaction rates were fit by non-linear regression to the Michaelis-Menton equation for competitive inhibition. […]

For assay [2], the system named is hematopoiesis. The following applies: mouse model of cyclophosphamide-induced neutropenia; WO 99/56753; cited from earlier work.
For assay [3], the target named is DPP-4 (Homo sapiens, UniProt P27487). The following applies: cited from earlier work.
Chain of DPP-4 (P27487 whole entry, species assumed): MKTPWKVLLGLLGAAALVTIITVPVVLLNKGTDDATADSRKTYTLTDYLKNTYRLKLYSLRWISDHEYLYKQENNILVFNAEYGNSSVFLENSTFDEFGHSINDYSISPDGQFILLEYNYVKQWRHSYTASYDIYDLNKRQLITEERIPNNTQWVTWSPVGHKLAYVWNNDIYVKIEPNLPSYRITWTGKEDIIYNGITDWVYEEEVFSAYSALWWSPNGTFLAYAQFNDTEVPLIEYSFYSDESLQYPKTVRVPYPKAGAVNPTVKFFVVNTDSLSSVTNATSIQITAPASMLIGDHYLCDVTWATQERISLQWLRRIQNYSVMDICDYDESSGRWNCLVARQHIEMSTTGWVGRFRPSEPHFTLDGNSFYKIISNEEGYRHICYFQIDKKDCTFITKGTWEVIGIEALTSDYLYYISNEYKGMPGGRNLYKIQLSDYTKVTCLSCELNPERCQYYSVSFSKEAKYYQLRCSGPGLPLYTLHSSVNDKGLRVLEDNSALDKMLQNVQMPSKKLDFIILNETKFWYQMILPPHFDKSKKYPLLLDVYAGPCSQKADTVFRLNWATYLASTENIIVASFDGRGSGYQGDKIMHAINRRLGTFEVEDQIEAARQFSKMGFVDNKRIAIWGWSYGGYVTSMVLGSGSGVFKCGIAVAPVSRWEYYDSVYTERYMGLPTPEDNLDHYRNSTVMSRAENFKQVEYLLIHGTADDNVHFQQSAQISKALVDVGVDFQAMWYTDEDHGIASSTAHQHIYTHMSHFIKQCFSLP

What is called IC50 is the concentration at which inhibition is half-maximal. Low values mean inhibition by little substance, high ones a need for much substance. Take `CS(=O)(=O)n1cc2c(n1)CN([C@H]1CO[C@H](c3sccc3F)[C@@H](N)C1)C2` (racemic) [Example 1]: the IC50 in assay [1] was 90 nM. That is a double-digit nanomolar value.
As to `CS(=O)(=O)n1cc2c(n1)CN([C@H]1CO[C@H](c3cc(F)cnc3F)[C@@H](N)C1)C2` [Example 2], the IC50 in assay [1] was determined as 100 nM. The IC50 values of the last two molecules are within 1.5-fold of each other.
As to `CC(C)[C@H](N)C(=O)N1CCC[C@H]1B(O)O` [Val-Boro-Pro], in assay [2], the hematopoiesis result is listed as “stimulated hematopoiesis”.
For the molecule `CC[C@H](C)[C@H](N)C(=O)N1CCC[C@H]1C(=O)N[C@H](C(=O)O)[C@@H](C)CC` [diprotin A], the “degradation of GRF in plasma to GRF[3-44]” value in assay [3] was “prevented”.
